How the values were obtained:
[1] = tested on: soluble ULBP2 from HCT116 cells; experiment: ULBP2 ELISA (shedding to culture supernatant); type: cell-based, human; details: 56 μM, 3 days
Protocol: ULBP2 shed from cell surface to the culture supernatant was detected by ELISA method as described before (Waldhauer & Steinle. 2006. Cancer research 66:2520-2526). 100 μl (triplicate) of cultured supernatant was added into a 96-well plate pre-coated with 1 μg/ml of mouse anti-ULBP2 (BUMO1) and incubated at 4° C. overnight. The plate was washed and then incubated with mouse anti-ULBP2 (IgG2a, 100 μl/well at 1 μg/ml) for 1 h followed by incubation with HRP-conjugated goat anti-mouse IgG2a for 1 h at room temperature. TMB substrate was added and the plate was read using Victor^2 plate reader (Perkin Elmer).

MMP-1 = MMP-1 activity in culture supernatant; type: cell-based, human; details: culture supernatant from HT29 and CAL27 cells
[2] = tested on: DNA damage in HCT116 cells; experiment: comet assay; type: cell-based, human
Protocol: Experiments were performed according to the manufacturer's instructions.

HCT116 cells = experiment: cell-cycle analysis (propidium iodide, EdU); type: cell-based, human; details: HCT116, 24 h
HDAC = HDAC activity and HDAC3 mRNA after SPIR treatment; type: cell-based, human
[3] = tested on: HCT116, HT29, and CAL27 cells; experiment: in vitro cell invasion assay (ECM-coated Transwell); type: cell-based, human; details: HCT116, HT29, CAL27
Protocol: The number of cells that invaded the ECM was determined after 24 h. Data are expressed as percentage change in tumor invasion relative to that of DMSO-treated cells (n=3). (D) Wound healing by DMSO- and SPIR-treated HCT116, HT29, and CAL27 cells was compared. Data are calculated as the percentage change in distance of migration relative to that of DMSO-treated cells (n=3). […] Tumor xenografts and lung metastases were detected by bioluminescence imaging on day 25. Data are shown as the average total flux (photons/second)±standard deviation (n=8). (F) The lung metastases (arrows) were confirmed by examining lung tissue sections. * P≤0.05, ** P<0.01, *** P<0.005, **** P<0.0001.
The invasiveness of the tumor cells was determined by using the CytoSelect 96-well Cell Invasion Assay with Basement Membrane (Cell Biolabs) according to the manufacturer instructions.

[4] = tested on: ATM/ATR checkpoint pathway in HCT116 cells; experiment: Western blot of ATM/ATR checkpoint pathway; type: cell-based, human
Protocol: Total cell lysates were collected at various time points for Western blot analysis to detect (A) ATM (Ser1981) and ATR (Ser428) phosphorylation and (B) ULBP2 expression. Data shown are representative of three independent experiments. […] Total cell lysates were prepared at various time points (with the same total protein concentration as determined by BCA protein assay) (0 h to 24 h) for phospho-Chk1 by ELISA. Data were expressed as fold change relative to the degree of Chk1 phosphorylation at 0 h (n=3). […] Data are representative of three independent experiments. […] Data are representative of three independent experiments. […] Data shown are representative of three independent experiments. (G) The knockdown efficiencies of various siRNAs in HCT116 cells were evaluated by Western blot analysis. Results are representative of three independent experiments. […] Data shown are representative of three independent experiments. * P<0.05, ** P<0.01, *** P<0.001.

[5] = tested on: ULBP2 surface expression in 293T cells; experiment: high-throughput screening of 5600 bioactive compounds, ULBP2 surface expression; type: cell-based, human
[6] = tested on: spontaneous intestinal polyps; experiment: C57BL/6J-ApcMin/J mouse model; type: in vivo, C57BL/6J-Apc^Min/J mice
Protocol: The number of spontaneous intestinal polyps (arrows) was counted and compared between the two groups of mice at the end of the 3 month period. (B) The difference in adenoma growth (arrows) between the PBS- and SPIR-treated mouse groups was confirmed in intestine tissue sections. […] Total RNA were collected for cDNA preparation and the expressions of the mouse NKG2D ligands Raet1 family were analyzed by qRT-PCR. […] The number of spontaneous intestinal polyps (arrows) was counted and compared between the two groups of mice. * P≤0.05, ** P≤0.01, *** P<0.005.
By examining the intestines collected from different age groups of C57BL/6J-APC^Min/J mice (n=2-3 per group), it was discovered that none of the 8-week-old mice developed intestinal polyps. The mice started to develop polyps when they were 10 to 12-week-old and there were 15-25 intestinal adenomas established in the intestinal tracts of all the 4-month-old mice. Most of the mice died at 5 to 6 months with 25-30 adenomas in their intestines. […] The number of intestinal polyps was counted, and the intestine was fixed in 10% neutral buffered formalin, paraffin embedded, sectioned, and stained with hematoxylin and eosin. Intestine sections at 100-μm intervals were collected for the observation of neoplasia without knowledge of treatment assignment.

CC(=O)S[C@@H]1CC2=CC(=O)CC[C@]2(C)[C@H]2CC[C@@]3(C)[C@@H](CC[C@@]34CCC(=O)O4)[C@H]12 [SPIR, spironolactone]
amount of soluble ULBP2 [1]: did not reduce but rather moderately increased | MMP-1 activity (MMP-1): decrease of MMP-1 activity | DNA breakage ([2]; HCT116, 56 μM for 24 h): moderate decrease in DNA breakage | genotoxicity ([2]; conclusion from comet assays): not genotoxic | cell cycle (HCT116 cells): S-phase cell-cycle arrest | HDAC activities (HDAC; SW480 or HCT116 cells): did not inhibit HDAC activities | mRNA expression of HDAC3 (HDAC; after SPIR treatment): no significant change | invasion through ECM-coated membranes [3]: significantly suppressed invasion | ATM and ATR phosphorylation ([4]; HCT116, 56 μM, time-dependent): induces ATM and ATR phosphorylation | phosphorylated Chk2 and H2A.X ([4]; HCT116, 24 h): an increase was also detected | surface expression of ULBP2 [5]: significantly increased | number of polyps (therapy) ([6]; 4-month-old mice, twice a week for 3 weeks, vs untreated): significant reduction of the number of polyps | number of polyps formed (prevention) ([6]; 8-week-old mice, twice a week for 3 months, vs untreated): significantly less | expression of Raet1 ligand in the polyps ([6]; qRT-PCR): significantly increased the expression of the Raet1 ligand

Source: patent US10286000B2, “Retinoid X receptor-gamma agonists and retinoid X receptor-alpha antagonists for treatment of cancer” (St. Jude Children's Research Hospital, Inc., priority 2013, dated 2019)
